Measurements published in PubChem BioAssay (NCI).
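Step 1: Grow cells in 96-well plates. Step 2: Expose to compound for 48 hours at 5 concentrations. Step 3: Interpolate endpoints linearly; if unreached, use highest concentration. GI50 = concentration required for 50% inhibition of growth. TGI marks complete inhibition of growth.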

Tests used:
Test in all cases: NCI tumour cell line growth inhibition, 48 h; in the data active = GI50 below about 0.43 µM; inactive = the rest
NCI/ADR-RES ovarian = system: NCI/ADR-RES ovarian
UACC-62 melanoma = system: UACC-62 melanoma
BT-549 breast = system: BT-549 breast
MOLT-4 leukemia = system: MOLT-4 leukemia
OVCAR-4 ovarian = system: OVCAR-4 ovarian
SN12C renal = system: SN12C renal
LOX IMVI melanoma = system: LOX IMVI melanoma
HCC-2998 colon = system: HCC-2998 colon
UO-31 renal = system: UO-31 renal
MDA-MB-435 = system: MDA-MB-435
DU-145 prostate = system: DU-145 prostate
HT29 colon = system: HT29 colon
HOP-62 NSCLC = system: HOP-62 NSCLC
HS 578T breast = system: HS 578T breast
UACC-257 melanoma = system: UACC-257 melanoma
ACHN renal = system: ACHN renal
SK-MEL-2 melanoma = system: SK-MEL-2 melanoma
SF-295 CNS = system: SF-295 CNS
T-47D breast = system: T-47D breast
OVCAR-5 ovarian = system: OVCAR-5 ovarian
HCT-116 colon = system: HCT-116 colon
K-562 leukemia = system: K-562 leukemia
A498 renal = system: A498 renal
OVCAR-3 ovarian = system: OVCAR-3 ovarian
SK-MEL-28 melanoma = system: SK-MEL-28 melanoma
MCF7 breast = system: MCF7 breast
RXF 393 renal = system: RXF 393 renal

COC(=O)c1c(O)ccc2[nH]c(C)c(C#N)c12
61.5 µM: TGI (HCT-116 colon)
inactive: GI50 (NCI/ADR-RES ovarian) > 100 µM | GI50 (UACC-62 melanoma) 25.7 µM | GI50 (BT-549 breast) 64 µM | GI50 (MOLT-4 leukemia) 26.7 µM | GI50 (OVCAR-4 ovarian) > 100 µM | GI50 (SN12C renal) 49 µM | GI50 (LOX IMVI melanoma) 30.9 µM | GI50 (HCC-2998 colon) 95.1 µM | GI50 (UO-31 renal) 33.9 µM | GI50 (MDA-MB-435) 32.9 µM | GI50 (DU-145 prostate) > 100 µM | GI50 (HT29 colon) 60.3 µM | GI50 (HOP-62 NSCLC) 22.7 µM | GI50 (HS 578T breast) 31 µM | GI50 (UACC-257 melanoma) > 100 µM | GI50 (ACHN renal) 20.6 µM | GI50 (SK-MEL-2 melanoma) > 100 µM | GI50 (SF-295 CNS) 27.4 µM | GI50 (T-47D breast) 44.4 µM | GI50 (OVCAR-5 ovarian) > 100 µM | GI50 (HCT-116 colon) 22 µM | GI50 (K-562 leukemia) 55.3 µM | GI50 (A498 renal) 20.7 µM | GI50 (OVCAR-3 ovarian) 31.4 µM | GI50 (SK-MEL-28 melanoma) 65.9 µM | GI50 (MCF7 breast) 46.3 µM | GI50 (RXF 393 renal) 22 µM
92.2 µM: TGI (HS 578T breast)
81 µM: TGI (HOP-62 NSCLC)
90.4 µM: TGI (UACC-62 melanoma)
92.9 µM: TGI (SF-295 CNS)
54.2 µM: TGI (A498 renal)
> 100 µM: TGI (NCI/ADR-RES ovarian) | TGI (BT-549 breast) | TGI (MOLT-4 leukemia) | TGI (OVCAR-4 ovarian) | TGI (SN12C renal) | TGI (LOX IMVI melanoma) | TGI (HCC-2998 colon) | TGI (UO-31 renal) | TGI (MDA-MB-435) | TGI (DU-145 prostate) | TGI (HT29 colon) | TGI (UACC-257 melanoma) | TGI (ACHN renal) | TGI (SK-MEL-2 melanoma) | TGI (T-47D breast) | TGI (OVCAR-5 ovarian) | TGI (K-562 leukemia) | TGI (OVCAR-3 ovarian) | TGI (SK-MEL-28 melanoma) | TGI (MCF7 breast) | TGI (RXF 393 renal)
